Laboratory results from patent US6521623B1, “N,N'-disubstituted benzimidazolone derivatives with affinity at the serotonin and dopamine receptors” (Boehringer Ingelheim Pharma KG, priority 2000, dated 2003).

Tests used:
D4 human receptors = target: T1, D4 human receptors (Homo sapiens, UniProt P21917); test: D4 Radioligand Receptor Binding Assay ([3H] YM-09151-2, CHO cell membranes); conditions: compound 10^−7 M, singlicate, [3H] YM-09151-2 0.15-0.25 nM
T1 construct: expressed in transfected cells; host or cells: CHO cells
T1 sequence (P21917 1-419): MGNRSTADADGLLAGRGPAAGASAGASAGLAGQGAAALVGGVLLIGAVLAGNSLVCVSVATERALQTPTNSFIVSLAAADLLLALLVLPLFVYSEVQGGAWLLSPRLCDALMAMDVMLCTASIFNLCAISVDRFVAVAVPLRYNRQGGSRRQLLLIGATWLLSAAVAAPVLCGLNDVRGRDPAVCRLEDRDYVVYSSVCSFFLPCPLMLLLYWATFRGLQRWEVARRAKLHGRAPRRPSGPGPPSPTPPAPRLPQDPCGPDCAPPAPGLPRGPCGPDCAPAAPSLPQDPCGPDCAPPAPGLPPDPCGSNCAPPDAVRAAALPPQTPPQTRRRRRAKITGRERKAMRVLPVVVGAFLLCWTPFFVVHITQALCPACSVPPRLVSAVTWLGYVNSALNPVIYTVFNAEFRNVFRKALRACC
Description: D4 Radioligand Receptor Binding Assay
Membranes from CHO cells expressing D4 human receptors, were suspended in incubation buffer.
Binding assays were performed in MultiProbe 204 pipetting system (Packard), according to a predetermined mapping, consistent with the software Screen. The compounds were tested in singlicate at one concentration (10^−7 M) in a total volume of 1000 μl (980 μl of diluted membranes, 10 μl DMSO or unlabelled ligand and 10 μl of [^3H] YM-09151-2 (0.15-0.25 nM). After incubation for 120 minutes at 27° C., the reaction was stopped by rapid filtration through Tomtec Cell Harvester (48 wells) using Filtermat B (presoaked in 0.1% PEI) filters. Filters were washed with ice-cold 50 mM Tris-HCl (pH 7.4) buffer (9×700 μl), dried, covered with MeltiLex B/HS (Wallac) scintillator sheets and heated in oven at 80° C. to 90° C. for about 10 minutes, transferred into plastic sample bags (Wallac), sealed, and put into 1024 Beta Plate scintillation counter (Wallac). Non-specific binding was determined in the presence of clozapine dissolved in DMSO to a final concentration of 10^−5 M.
The specific radioligand binding to the receptor was defined by the difference between total binding and non-specific binding, determined in the presence of an excess of unlabelled ligand. Results were expressed as percentage of control specific binding obtained in the presence of the compounds.

5-HT1A = target: T2, 5-HT1A (Homo sapiens, UniProt P08908); test: 5HT1A Radioligand Receptor Binding Assay ([3H]-8-OH-DPAT, CHO cell membranes); parameters: expressed in transfected cells; host or cells: CHO cells; conditions: CHO membranes, human 5-HT1A; for 5-HT1A Receptor Binding Assay % inhibition (10^−7 M): compound 10^−7 M, singlicate, [3H]-8-OH-DPAT 0.6-0.7 nM
T2 sequence (P08908 1-422): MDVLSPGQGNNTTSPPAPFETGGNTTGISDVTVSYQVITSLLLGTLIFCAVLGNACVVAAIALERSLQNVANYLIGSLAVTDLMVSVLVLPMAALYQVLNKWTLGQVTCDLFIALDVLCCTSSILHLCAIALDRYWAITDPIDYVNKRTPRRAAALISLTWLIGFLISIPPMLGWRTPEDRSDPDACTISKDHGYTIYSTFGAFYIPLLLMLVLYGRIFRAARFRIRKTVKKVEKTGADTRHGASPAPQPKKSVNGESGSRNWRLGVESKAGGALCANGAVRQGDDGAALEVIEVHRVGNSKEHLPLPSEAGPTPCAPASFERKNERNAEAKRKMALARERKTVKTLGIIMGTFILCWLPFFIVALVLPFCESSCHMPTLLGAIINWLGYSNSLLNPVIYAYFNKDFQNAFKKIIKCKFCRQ
Description: 5HT1A Radioligand Receptor Binding Assay
Membranes from CHO cells, expressing 5-HT1A human receptors were suspended in incubation buffer.
Binding assays were performed in MultiProbe 204 pipetting system (Packard), according to a predetermined mapping, consistent with the software Screen. The compounds were tested in singlicate at one concentration (10^−7 M) in a total volume of 1000 μl. 980 μl of diluted membranes, 10 μl DMSO or unlabelled ligand and 10 μl of [^3H]-8-OH-DPAT (0.6-0.7 nM) were incubated for 60 minutes at 27° C. The reaction was stopped by rapid filtration through Tomtec Cell Harvester (48 wells) using Filtermat B (presoaked in 0.1% PEI) filters. Filters were washed with ice-cold 50 mM Tris-HCl (pH 7.4) buffer (9×700 μl), dried, covered with MeltiLex B/HS scintillator sheets (Wallac) and heated at 80° C. to 90° C. for about 10 minutes, transferred into plastic sample bags (Wallac), sealed, and put into 1024 Beta Plate scintillation counter (Wallac). Non-specific binding was determined in the presence of 5-HT (10^−5 M).
The specific radioligand binding to the receptor was defined by the difference between total binding and non-specific binding, determined in the presence of an excess of unlabelled ligand. Results were expressed as percentage of control specific binding obtained in the presence of the compounds. The affinity values (IC50) for the compounds were obtained by a nonlinear least squares regression analysis on the basis of a one binding site model.

SMILES: O=c1n(C/C=C\CN2CC=C(c3ccccc3)CC2)c2ccccc2n1CCN1CCCCC1 [Compound 319]
- D4 Receptor Binding Assay % inhibition (10^−7 M) (D4 human receptors): 70%
- 5-HT1A Receptor Binding Assay % inhibition (10^−7 M) (5-HT1A): 94%

SMILES: O=c1n(C/C=C/CN2CCN(c3ccccc3)CC2)c2ccccc2n1CCN1CCCCC1 [Compound 327]
- D4 Receptor Binding Assay % inhibition (10^−7 M) (D4 human receptors): 74%
- 5-HT1A Receptor Binding Assay % inhibition (10^−7 M) (5-HT1A): 78%

SMILES: O=c1n(C/C=C/CN2CCN(c3cccc(Cl)c3)CC2)c2ccccc2n1CCN1CCCCC1 [Compound 331]
- D4 Receptor Binding Assay % inhibition (10^−7 M) (D4 human receptors): 92%
- 5-HT1A Receptor Binding Assay % inhibition (10^−7 M) (5-HT1A): 100%

SMILES: O=c1n(C/C=C/CN2CCN(c3ncccn3)CC2)c2ccccc2n1CCN1CCCCC1 [Compound 332]
- D4 Receptor Binding Assay % inhibition (10^−7 M) (D4 human receptors): 85%
- 5-HT1A Receptor Binding Assay % inhibition (10^−7 M) (5-HT1A): 78%

SMILES: O=c1n(C/C=C/CN2CC=C(c3ccccc3)CC2)c2ccccc2n1CCN1CCCCC1 [Compound 336]
- D4 Receptor Binding Assay % inhibition (10^−7 M) (D4 human receptors): 81%
- 5-HT1A Receptor Binding Assay % inhibition (10^−7 M) (5-HT1A): 90%

SMILES: O=c1n(C/C=C/CN2CCN(c3ncccn3)CC2)c2ccccc2n1CCN1CCOCC1 [Compound 349]
- D4 Receptor Binding Assay % inhibition (10^−7 M) (D4 human receptors): 31%
- 5-HT1A Receptor Binding Assay % inhibition (10^−7 M) (5-HT1A): 73%

SMILES: O=c1n(C/C=C\CN2CCN(c3ccccc3)CC2)c2ccccc2n1CCO [Compound 361]
- D4 Receptor Binding Assay % inhibition (10^−7 M) (D4 human receptors): 46%
- 5-HT1A Receptor Binding Assay % inhibition (10^−7 M) (5-HT1A): 86%

SMILES: O=c1n(C/C=C\CN2CCN(c3ccccn3)CC2)c2ccccc2n1CCO [Compound 364]
- D4 Receptor Binding Assay % inhibition (10^−7 M) (D4 human receptors): 36%
- 5-HT1A Receptor Binding Assay % inhibition (10^−7 M) (5-HT1A): 77%

SMILES: O=c1n(C/C=C\CN2CCN(c3cccc(Cl)c3)CC2)c2ccccc2n1CCO [Compound 365]
- inhibition at 0.1 µM (D4 human receptors): 63%
- IC50 (5-HT1A; [3H]-8-OH-DPAT, read-out: 5-HT1A Receptor Binding IC50): 15 nM

SMILES: O=c1n(C/C=C\CN2CCc3c([nH]c4ccccc34)C2)c2ccccc2n1CCO [Compound 367]
- D4 Receptor Binding Assay % inhibition (10^−7 M) (D4 human receptors): 90%
- 5-HT1A Receptor Binding Assay % inhibition (10^−7 M) (5-HT1A): 61%

SMILES: O=c1n(C/C=C\CN2CCN(c3ccc(Cl)c(Cl)c3)CC2)c2ccccc2n1CCO [Compound 371]
- D4 Receptor Binding Assay % inhibition (10^−7 M) (D4 human receptors): 95%
- 5-HT1A Receptor Binding Assay % inhibition (10^−7 M) (5-HT1A): 59%

SMILES: O=c1n(C/C=C/CN2CCN(c3ccccc3)CC2)c2ccccc2n1CCO [Compound 378]
- D4 Receptor Binding Assay % inhibition (10^−7 M) (D4 human receptors): 35%
- 5-HT1A Receptor Binding Assay % inhibition (10^−7 M) (5-HT1A): 77%

SMILES: CCNC(=O)OCCn1c(=O)n(C/C=C\CN2CCN(c3ccccc3)CC2)c2ccccc21 [Compound 395]
- D4 Receptor Binding Assay % inhibition (10^−7 M) (D4 human receptors): 32%
- 5-HT1A Receptor Binding Assay % inhibition (10^−7 M) (5-HT1A): 86%

SMILES: CCNC(=O)OCCn1c(=O)n(C/C=C/CN2CCN(c3ccccc3)CC2)c2ccccc21 [Compound 412]
- D4 Receptor Binding Assay % inhibition (10^−7 M) (D4 human receptors): 39%
- 5-HT1A Receptor Binding Assay % inhibition (10^−7 M) (5-HT1A): 93%

SMILES: CS(=O)(=O)NCCn1c(=O)n(C/C=C\CN2CCc3c([nH]c4ccccc34)C2)c2ccccc21 [Compound 501]
- D4 Receptor Binding Assay % inhibition (10^−7 M) (D4 human receptors): 63%
- 5-HT1A Receptor Binding Assay % inhibition (10^−7 M) (5-HT1A): 70%

SMILES: CS(=O)(=O)NCCn1c(=O)n(C/C=C\CN2CCN(c3ccc(Cl)c(Cl)c3)CC2)c2ccccc21 [Compound 505]
- D4 Receptor Binding Assay % inhibition (10^−7 M) (D4 human receptors): 58%
- 5-HT1A Receptor Binding Assay % inhibition (10^−7 M) (5-HT1A): 78%

SMILES: CS(=O)(=O)NCCn1c(=O)n(C/C=C/CN2CCN(c3ccc(Cl)c(Cl)c3)CC2)c2ccccc21 [Compound 527]
- D4 Receptor Binding Assay % inhibition (10^−7 M) (D4 human receptors): 36%
- 5-HT1A Receptor Binding Assay % inhibition (10^−7 M) (5-HT1A): 73%

SMILES: COc1ccccc1N1CCN(C/C=C/Cn2c(=O)n(CCNS(C)(=O)=O)c3ccccc32)CC1 [Compound 535]
- D4 Receptor Binding Assay % inhibition (10^−7 M) (D4 human receptors): 39%
- 5-HT1A Receptor Binding Assay % inhibition (10^−7 M) (5-HT1A): 97%
